Source: patent EP2316926B1, “Enantioselective production of alpha-hydroxy carbonyl compounds” (priority 2009, dated 2011)
Several values for one entry are separate records, joined by “and”; a condition that tells them apart may be missing. Equal values may be shown once. Values belong to the molecule of their own block, whether it stands above or below them.

What was measured:
Gox0644 [1] = molecular target: T1, Gox0644 (Gluconobacter oxydans, UniProt Q5FT75); experiment: NADPH-dependent α-ketocarbonyl reductase activity assay (rate of decrease of NADPH at 340 nm); format: biochemical; settings: for Gox0644 U/mg*: Table 3, 10 mM substrate, 40 mM K-phosphate buffer pH 7.0, 0.05 mM NAD(P)H, 30 °C, U/mg = µmol x min^-1 x mg protein^-1
Procedure: Reactions were induced by addition of enzyme or substrate. One unit was defined as the amount of enzyme activity catalyzing the conversion of 1 µmol of pyridine nucleotide per min at 30 °C. NMR Analysis of Biotransformation Products: Biotransformations were extracted with equal volumes of CDCl3. and ^13C NMR spectra were recorded on a Bruker Avance 300 DPX spectrometer operating at 300 MHz for ^1H NMR and at 75 MHz for ^13C NMR, respectively.
Reactions were induced by addition of enzyme or substrate. One unit of activity was defined as the amount of enzyme activity catalyzing the conversion of 1 µmol of pyridine nucleotide per min at 30 °C.
The standard reaction mixture (1 ml) for the reduction reactions of substrates contained 10 mM substrate, 40 mM potassium phosphate buffer (K-phosphate buffer) pH 7.0, 0.05 mM NAD(P)H, and the enzyme unless otherwise noted. Reactions were induced by addition of enzyme or substrate. One unit of activity was defined as the amount of enzyme activity catalyzing the conversion of 1 µmol of pyridine nucleotide per min at 30 °C. […] Table 3: Enzymatic activities with α-diketones, α-ketoaldehydes and α-ketoesters

Gox1615 [2] = molecular target: T2, Gox1615 (Gluconobacter oxydans, UniProt Q5FQJ0); experiment: as above; format: biochemical; settings: for Gox1615 U/mg*: Table 3, 10 mM substrate, 40 mM K-phosphate buffer pH 7.0, 0.05 mM NAD(P)H, 30 °C, U/mg = µmol x min^-1 x mg protein^-1; for Specific Activity (U/mg)*: Table 5, cofactor NADPH, U/mg = µmol/mg·min
T2 sequence (Q5FQJ0 1-332): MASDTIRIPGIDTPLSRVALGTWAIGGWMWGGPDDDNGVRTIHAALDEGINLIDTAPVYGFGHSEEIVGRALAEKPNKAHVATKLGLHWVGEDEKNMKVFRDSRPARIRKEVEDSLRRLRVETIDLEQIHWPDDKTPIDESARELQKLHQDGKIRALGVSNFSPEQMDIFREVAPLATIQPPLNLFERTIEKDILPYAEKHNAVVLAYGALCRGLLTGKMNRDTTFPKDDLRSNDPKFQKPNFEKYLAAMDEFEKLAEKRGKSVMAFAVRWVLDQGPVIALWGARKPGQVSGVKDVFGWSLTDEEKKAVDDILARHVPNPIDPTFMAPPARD
Procedure: (§1) Measurement of enzyme activity: NADPH-dependent α-ketocarbonyl reductases were assayed by a routine method used for NAD(P)-linked enzymes by recording the rate of decrease of NADPH at 340 nm (ε = 6.22 mM^-1 x cm^-1)) with substrates at 30 °C. The reaction mixture (1 ml) for reduction of α-ketocarbonyl substrates contained 10 mM substrate, 40 mM potassium phosphate buffer pH 7.0, 0.025 mM NAD(P)H and the enzyme. Reactions were induced by addition of enzyme or substrate. One unit was defined as the amount of enzyme activity catalyzing the conversion of 1 µmol of pyridine nucleotide per min at 30 °C. NMR Analysis of Biotransformation Products: Biotransformations were extracted with equal volumes of CDCl3. and ^13C NMR spectra were recorded on a Bruker Avance 300 DPX spectrometer operating at 300 MHz for ^1H NMR and at 75 MHz for ^13C NMR, respectively. Spectra were processed using Bruker TonSpin 1.3 for Windows software and calibrated to the residual solvent peak of CDCl3 (δH = 7.26 / δC = 77.0).
NADPH-dependent α-ketocarbonyl reductases were assayed by a routine method used for NAD(P)-linked enzymes by recording the rate of decrease of NADPH at 340 nm (ε = 6.22 mM^-1.cm^-1) with substrates at 30 °C. The reaction mixture (1 ml) for reduction of α-ketocarbonyl substrates contained 10 mM substrate, 40 mM potassium phosphate buffer pH 7.0, 0.025 mM NADPH, and the enzyme. Reactions were induced by addition of enzyme or substrate. One unit of activity was defined as the amount of enzyme activity catalyzing the conversion of 1 µmol of pyridine nucleotide per min at 30 °C.
Purified NAD(P)-dependent oxidoreductases were assayed at 30 °C by a routine method used for NAD(P)-linked enzymes by recording the rate of decrease of NAD(P)H at 340 nm (ε = 6.22 mM^-1˙cm^-1) with substrates capable of reduction reactions. The standard reaction mixture (1 ml) for the reduction reactions of substrates contained 10 mM substrate, 40 mM potassium phosphate buffer (K-phosphate buffer) pH 7.0, 0.05 mM NAD(P)H, and the enzyme unless otherwise noted. Reactions were induced by addition of enzyme or substrate. One unit of activity was defined as the amount of enzyme activity catalyzing the conversion of 1 µmol of pyridine nucleotide per min at 30 °C. Measurement of the protein content was performed by the method of Bradford (Bradford M.M., Anal. Biochem. 72:248-254 (1976)). Table 3: Enzymatic activities with α-diketones, α-ketoaldehydes and α-ketoesters

Gox0644 [3] = molecular target: T1, Gox0644; experiment: Coupled-enzyme biotransformation with cofactor regeneration, product determined by NMR (regio- and stereoselectivity); format: biochemical
Procedure: as §1
Determination of the absolute configuration of the biotransformation product 2-hydroxy-pentan-3-one using chiral NMR shift solvents: Chiral NMR shift reagent (R,R)- and (S,S)-bis-α-methylbenzylamine-para-methyl (BMBA-p-Me) was prepared with small modifications according to the method reported by Kobayashi, Y et al., Tetrahedron Lett. 44: 7489-7491 (2003). In brief, the method of Marshall, J.A. and Mikowski, A. M., Org. Lett. 8:4375-4378 (2006) was used to synthesize 1,3-dibromo-2-methylpropane from 1,3-dihydroxy-2-methylpropane. Diisopropylethylamine (25.5 g), triphenylphosphine (20.1 g) and CBr4 (25.5 g) were sequentially added to a stirring solution of […] in 100 ml CH2Cl2 at 0 °C. The reaction was stirred for 3-4 h at 0 °C and concentrated under reduced pressure to give a green-brown oil. The oil was dissolved in diethyl ether and water (100 ml each) and the aqueous layer was extracted three times with diethyl ether. The organic extracts were combined and washed with water and brine, and dried over MgSO4. The reaction was concentrated under reduced pressure and applied to flash chromatography on silica 60 (230-400 mesh, 100% cyclohexane). Fractions containing the 1,3-dibromo-2-methylpropane product were combined (as judged by Si-TLC [100% cyclohexene]) and concentrated under reduced pressure resulting in a brown-yellow oil. The dibromopropane oil was used for the synthesis of (R,R)- and (S,S)-BMBA-p-Me as described by (Kobayashi, Y. et al., Org. Lett. 4(3):411-414 (2002). The crude oil was distilled by Kugelrohr at 240 °C to give crude BMPA-p-Me (yellow oil). BMBA-p-Me was purified by HPLC using a C18 column (Waters Xterra, 250 x 4.6 mm) at a flow rate of 0.8 ml min^-1 and a 40 min linear gradient of 50-100 % MeOH at ambient temperature. Fractions were concentrated under reduced pressure and BMBA-p-Me was identified by ^1H-NMR (colorless hygroscopic oil).
Approximately 7.5 mg of the extracted product 2-hydroxy-pentan-3-one was added to 15 mg (R,R)- or (S,S)-BMBA-p-Me (dissolved in 200-300 µl CDCl3) and analyzed by ^13C NMR with the readout adjusted to 0.001 ppm/point (sw = 239 ppm, td = 512k) (Fiorentino, A. et al., Tetrahedron., 62:8952-8958 (2006)). The absolute configuration was determined based on the sign of ΔδRR-SS (δ(R,R)-BMBA-p-Me - δ(S,S)-BMBA-p-Me) for the α-carbons adjacent to the hydroxymethine unit as formulated in the following model shown in Scheme 3 (valid for saturated secondary alcohols of acyclic and cyclic compounds): [drawing 7]
Cofactor regeneration: A prerequisite for the production of α-hydroxycarbonyl compounds is the regeneration of the expensive coenzymes and the stability of the protein catalysts. By coupling two coenzyme-dependent enzyme reactions, NADPH can be continuously regenerated. […]

Gox0644 [4] = molecular target: T1, Gox0644; experiment: Kinetic constants from purified enzyme by Lineweaver-Burk plots; format: biochemical
Procedure: (§2) Determination of pH and temperature optima and enzyme kinetics: The optimum pH for enzyme activities was determined by a modified method of Salusjärvi, T. et al., Appl. Microbiol. Biotechnol. 65:306-314 (2004) using the following buffer system (50 mM final concentration each): sodium acetate pH 4.5 - 6.5, potassium phosphate pH 6.5 - 8.0, Tris-HCl pH 8.0 - 10. Temperature optima for the biocatalysts were determined under standard reaction conditions at temperatures ranging from 20 - 80 °C. The Michaelis constant (Km) for the proteins was determined from purified enzyme by Lineweaver-Burk plots. Assays were performed at optimum pH for each enzyme and at 30 °C using the best substrate and a targeted substrate. The Km for each substrate was calculated using concentrations of 0.0025 to 10 mM, and the Km NAD(P)H and NAD(P) was calculated using concentrations of 0.01 to 0.5 mM
(§3) 2.9 Kinetic parameters of the keto carbonyl reductases: Kinetic constants were determined from purified enzyme by Lineweaver-Burk plots. The Km and Vmax values for the substrates were calculated using concentrations of 0.025 to 10 mM. The optimal pH values and temperatures for enzyme activities are also shown in Tab. 8. Table 8: Summary of kinetic parameters

CCC(=O)C(C)=O = experiment: as above; format: biochemical, Gluconobacter oxydans; settings: other: 40 mM KPB at optimal pH and 30 °C, substrate 0.025 to 10 mM
Procedure: as §2, §3

O=CC(=O)c1ccccc1 = experiment: as above; format: biochemical, Gluconobacter oxydans; settings: other: 40 mM KPB at optimal pH and 30 °C, substrate 0.025 to 10 mM
Procedure: as §2, §3

Gox1615 [5] = molecular target: T2, Gox1615; experiment: as above; format: biochemical
Procedure: as §2, §3

[6] = substrate: CC(=O)C=O; experiment: as above; format: biochemical, Gluconobacter oxydans; settings: other: 40 mM KPB at optimal pH and 30 °C, substrate 0.025 to 10 mM
Procedure: as §2, §3

[7] = substrate: CCC(=O)C(C)=O; experiment: as above; format: biochemical, Gluconobacter oxydans; settings: other: 40 mM KPB at optimal pH and 30 °C, substrate 0.025 to 10 mM; remark: listed apart in the source
Procedure: as §2, §3

[8] = substrate: CCCC(=O)C(C)=O; experiment: as above; format: biochemical, Gluconobacter oxydans; settings: other: 40 mM KPB at optimal pH and 30 °C, substrate 0.025 to 10 mM
Procedure: as §2, §3

[9] = substrate: O=CC(=O)c1ccccc1; experiment: as above; format: biochemical, Gluconobacter oxydans; settings: other: 40 mM KPB at optimal pH and 30 °C, substrate 0.025 to 10 mM; remark: listed apart in the source
Procedure: as §2, §3

Molecule: CC(=O)C(=O)c1ccccc1 [1-phenyl-1,2-propanedione]
Gox0644 U/mg* (Gox0644 [1]): 75.4 U/mg
activity (Gox0644 [1]; substrates showing the highest activities): 75 U/mg protein
Gox1615 U/mg* (Gox1615 [2]): 5.4 U/mg
Specific Activity (U/mg)* (Gox1615 [2]): 5.4 U/mg
Product (stereoselective reduction) (Gox0644 [3]; NMR with chiral solvent BMBA-p-Me): 1-phenyl-2R-hydroxy-propanone
Product (regioselective reduction) (Gox0644 [3]; determined by NMR analysis): 1-phenyl-2-hydroxy-propanone and 1-phenyl-2-hydroxy-1-propanone

Gox0644 U/mg* (Gox0644 [1]): 74.7 U/mg
Gox1615 U/mg* (Gox1615 [2]): 19.1 U/mg
Specific Activity (U/mg)* (Gox1615 [2]): 19.1 U/mg
Vmax (Gox0644 [4]): 75 U/mg protein
Molecule: O=CC(=O)c1ccccc1 [phenylglyoxal]

Molecule: Gox0644 (Gluconobacter oxydans 621H)
Km (CCC(=O)C(C)=O): 5.7 mM
Vmax (CCC(=O)C(C)=O): 69.6 µmol/min x mg
Km (O=CC(=O)c1ccccc1): 4.8 mM
Vmax (O=CC(=O)c1ccccc1): 74.7 µmol/min x mg

Molecule: CC(=O)C=O [methylglyoxal]
Gox0644 U/mg* (Gox0644 [1]): 3.4 U/mg
Gox1615 U/mg* (Gox1615 [2]): 23.0 U/mg
Specific Activity (U/mg)* (Gox1615 [2]): 23.0 U/mg
Vmax (Gox1615 [5]): 23 U/mg protein

B1: Gox1615 (Gluconobacter oxydans 621H) (protein)
chain: MASDTIRIPGIDTPLSRVALGTWAIGGWMWGGPDDDNGVRTIHAALDEGINLIDTAPVYGFGHSEEIVGRALAEKPNKAHVATKLGLHWVGEDEKNMKVFRDSRPARIRKEVEDSLRRLRVETIDLEQIHWPDDKTPIDESARELQKLHQDGKIRALGVSNFSPEQMDIFREVAPLATIQPPLNLFERTIEKDILPYAEKHNAVVLAYGALCRGLLTGKMNRDTTFPKDDLRSNDPKFQKPNFEKYLAAMDEFEKLAEKRGKSVMAFAVRWVLDQGPVIALWGARKPGQVSGVKDVFGWSLTDEEKKAVDDILARHVPNPIDPTFMAPPARD
Km [6]: 4.3 mM
Vmax [6]: 23.0 µmol/min x mg
Km [7]: 4.0 mM
Vmax [7]: 7.0 µmol/min x mg
Km [8]: 4.0 mM
Vmax [8]: 7.0 U/mg protein
Km [9]: 4.3 mM
Vmax [9]: 23 U/mg protein
